Drawing on PMC7180948, “New Insights into 4-Anilinoquinazolines as Inhibitors of Cardiac Troponin I–Interacting Kinase (TNNi3K)” (Molecules, 2020), this text covers inhibition for 1 molecule.

What all share (assay): biochemical
Holding throughout (parameters): KINOMEscan competition binding panel (Eurofins DiscoverX), single concentration, % inhibition
Conditions in all cases: read-out: 7 at 1 µM % inhibition

The target of one assay is CDK2 (Homo sapiens, UniProt P24941). The method, boiled down: (§1)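 KINOMEscan binding panel of >400 kinases, run by Eurofins DiscoverX, with compounds tested at a single concentration of 1 µM.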
Another assay deals with CDK9 (Homo sapiens, UniProt P50750). In outline:
as §1

In a further assay the target is DAPK2 (Homo sapiens, UniProt Q9UIK4). In outline: as §1
For another assay, the target named is T1, DCAMKL1 (Homo sapiens, UniProt O15075).
T1 construct: gene DCLK1
The method, boiled down: as §1

The target of the next assay is T2, DRAK2 (Homo sapiens, UniProt O94768).
T2 construct: gene STK17B
T2 sequence (O94768 whole entry): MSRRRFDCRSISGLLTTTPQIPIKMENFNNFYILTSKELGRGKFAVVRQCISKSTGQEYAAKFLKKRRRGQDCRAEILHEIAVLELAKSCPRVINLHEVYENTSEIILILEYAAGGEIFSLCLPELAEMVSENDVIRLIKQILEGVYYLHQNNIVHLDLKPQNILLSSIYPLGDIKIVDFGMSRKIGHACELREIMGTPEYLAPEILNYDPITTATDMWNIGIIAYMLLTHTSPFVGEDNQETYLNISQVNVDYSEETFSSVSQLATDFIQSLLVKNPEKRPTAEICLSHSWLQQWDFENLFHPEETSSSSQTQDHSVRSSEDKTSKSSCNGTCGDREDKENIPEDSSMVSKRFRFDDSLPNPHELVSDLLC
In outline: as §1

The next assay deals with EGFR(T790M) (Homo sapiens, UniProt P00533, T790M). In outline: as §1
A further assay has as its target EPHB4 (Homo sapiens, UniProt P54760). The method, boiled down: as §1
A further assay deals with FLT3(ITD,F691L) (Homo sapiens, UniProt P36888, F691L/ITD). The method, boiled down:
as §1

The next assay addresses IRAK3 (Homo sapiens, UniProt Q9Y616). In outline: as §1
The next assay addresses MAP4K4 (Homo sapiens, UniProt O95819). The method, boiled down:
as §1

For another assay, the target named is MAST1 (Homo sapiens, UniProt Q9Y2H9). The method, boiled down: as §1
MAST1, sequence (Q9Y2H9 whole entry): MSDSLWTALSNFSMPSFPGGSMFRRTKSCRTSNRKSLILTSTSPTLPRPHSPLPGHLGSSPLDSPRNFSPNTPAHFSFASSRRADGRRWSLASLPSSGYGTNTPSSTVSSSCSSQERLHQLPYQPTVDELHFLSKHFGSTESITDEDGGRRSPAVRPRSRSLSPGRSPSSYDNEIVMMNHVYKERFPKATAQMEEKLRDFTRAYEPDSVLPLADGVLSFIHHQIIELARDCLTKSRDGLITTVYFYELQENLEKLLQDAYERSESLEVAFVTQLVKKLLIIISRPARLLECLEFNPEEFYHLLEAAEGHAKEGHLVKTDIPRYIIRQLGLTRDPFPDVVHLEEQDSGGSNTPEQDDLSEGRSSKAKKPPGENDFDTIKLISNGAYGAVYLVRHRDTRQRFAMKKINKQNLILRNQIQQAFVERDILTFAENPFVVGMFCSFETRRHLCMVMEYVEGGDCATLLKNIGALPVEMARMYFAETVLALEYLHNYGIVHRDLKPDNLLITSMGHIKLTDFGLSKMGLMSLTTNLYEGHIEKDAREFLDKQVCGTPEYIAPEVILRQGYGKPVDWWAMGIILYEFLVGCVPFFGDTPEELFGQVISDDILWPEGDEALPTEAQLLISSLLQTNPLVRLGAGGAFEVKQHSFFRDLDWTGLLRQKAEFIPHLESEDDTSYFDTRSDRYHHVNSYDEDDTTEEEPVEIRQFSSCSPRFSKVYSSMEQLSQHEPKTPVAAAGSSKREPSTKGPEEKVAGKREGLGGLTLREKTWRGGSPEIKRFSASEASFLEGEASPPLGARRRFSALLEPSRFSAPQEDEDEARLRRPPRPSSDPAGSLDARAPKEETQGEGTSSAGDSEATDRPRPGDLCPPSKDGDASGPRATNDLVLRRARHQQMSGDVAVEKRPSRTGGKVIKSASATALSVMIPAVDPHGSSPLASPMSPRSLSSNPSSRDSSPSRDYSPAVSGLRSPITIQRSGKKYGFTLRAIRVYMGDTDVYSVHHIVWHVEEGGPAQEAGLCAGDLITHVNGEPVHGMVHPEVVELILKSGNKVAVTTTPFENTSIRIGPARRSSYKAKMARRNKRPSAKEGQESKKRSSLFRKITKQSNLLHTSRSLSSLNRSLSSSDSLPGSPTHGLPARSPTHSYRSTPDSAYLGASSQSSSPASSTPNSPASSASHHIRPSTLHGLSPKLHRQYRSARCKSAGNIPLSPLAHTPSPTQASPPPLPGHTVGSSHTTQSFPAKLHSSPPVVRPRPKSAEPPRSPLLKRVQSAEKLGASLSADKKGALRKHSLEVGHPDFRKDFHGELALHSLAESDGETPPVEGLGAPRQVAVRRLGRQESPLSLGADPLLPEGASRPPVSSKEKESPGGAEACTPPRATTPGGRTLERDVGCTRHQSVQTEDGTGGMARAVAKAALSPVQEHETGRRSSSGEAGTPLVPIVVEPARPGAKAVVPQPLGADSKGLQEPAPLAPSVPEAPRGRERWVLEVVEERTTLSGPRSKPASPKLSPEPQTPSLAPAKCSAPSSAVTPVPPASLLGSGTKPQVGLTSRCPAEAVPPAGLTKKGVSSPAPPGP
In the next assay the target is T3, MRCKA (Homo sapiens, UniProt Q5VT25).
T3 construct: gene CDC42BPA
The method, boiled down: as §1

A further assay concerns the target MYLK4 (Homo sapiens, UniProt Q86YV6). In outline:
as §1

A further assay concerns the target NEK11 (Homo sapiens, UniProt Q8NG66). The method, boiled down: as §1
The target in another assay is NEK7 (Homo sapiens, UniProt Q8TDX7). The method, boiled down: as §1
The target of another assay is T4, NIM1 (Homo sapiens, UniProt Q8IY84).
T4 construct: gene NIM1K
In outline:
as §1

The next assay deals with PHKG1 (Homo sapiens, UniProt Q16816). In outline: as §1
The target in the next assay is PIK3CA(E545A) (Homo sapiens, UniProt P42336, E545A). The method, boiled down: as §1
Another assay has as its target PRKG2 (Homo sapiens, UniProt Q13237). In outline: as §1
A further assay addresses T5, QSK (Homo sapiens, UniProt Q9Y2K2).
T5 construct: gene SIK3
The method, boiled down:
as §1

The target in a further assay is RIPK2 (Homo sapiens, UniProt O43353). In outline:
as §1

Another assay addresses SNRK (Homo sapiens, UniProt Q9NRH2). In outline: as §1
The target of a further assay is STK16 (Homo sapiens, UniProt O75716). In outline:
as §1

A further assay concerns the target T6, p38-alpha (Homo sapiens, UniProt Q16539).
T6 construct: gene MAPK14
In outline: as §1

STK16, sequence (O75716 whole entry): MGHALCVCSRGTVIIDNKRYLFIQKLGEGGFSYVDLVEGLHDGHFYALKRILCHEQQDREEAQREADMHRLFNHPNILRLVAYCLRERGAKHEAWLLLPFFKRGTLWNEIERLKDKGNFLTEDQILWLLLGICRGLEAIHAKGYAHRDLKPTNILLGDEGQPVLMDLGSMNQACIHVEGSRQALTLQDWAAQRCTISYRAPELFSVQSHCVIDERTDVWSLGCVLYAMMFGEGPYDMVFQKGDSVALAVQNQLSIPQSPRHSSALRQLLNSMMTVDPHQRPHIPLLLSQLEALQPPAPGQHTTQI
NEK11, sequence (Q8NG66 whole entry): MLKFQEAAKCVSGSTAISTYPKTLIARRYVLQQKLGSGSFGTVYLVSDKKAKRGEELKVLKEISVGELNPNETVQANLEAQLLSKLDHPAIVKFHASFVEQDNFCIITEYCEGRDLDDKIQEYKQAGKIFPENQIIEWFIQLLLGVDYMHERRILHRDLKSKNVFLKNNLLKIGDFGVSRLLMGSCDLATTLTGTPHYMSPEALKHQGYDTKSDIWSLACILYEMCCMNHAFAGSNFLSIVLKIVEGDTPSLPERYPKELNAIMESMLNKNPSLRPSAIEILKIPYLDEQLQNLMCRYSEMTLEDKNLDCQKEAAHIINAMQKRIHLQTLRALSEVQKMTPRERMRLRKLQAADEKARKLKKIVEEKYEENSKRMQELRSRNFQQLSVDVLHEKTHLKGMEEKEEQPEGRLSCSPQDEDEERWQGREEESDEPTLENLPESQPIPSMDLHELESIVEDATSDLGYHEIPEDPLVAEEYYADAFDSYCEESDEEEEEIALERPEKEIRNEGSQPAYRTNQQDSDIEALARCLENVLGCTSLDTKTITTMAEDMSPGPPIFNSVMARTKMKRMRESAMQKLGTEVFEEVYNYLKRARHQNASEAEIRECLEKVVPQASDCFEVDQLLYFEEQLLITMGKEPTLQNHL
IRAK3, sequence (Q9Y616 whole entry): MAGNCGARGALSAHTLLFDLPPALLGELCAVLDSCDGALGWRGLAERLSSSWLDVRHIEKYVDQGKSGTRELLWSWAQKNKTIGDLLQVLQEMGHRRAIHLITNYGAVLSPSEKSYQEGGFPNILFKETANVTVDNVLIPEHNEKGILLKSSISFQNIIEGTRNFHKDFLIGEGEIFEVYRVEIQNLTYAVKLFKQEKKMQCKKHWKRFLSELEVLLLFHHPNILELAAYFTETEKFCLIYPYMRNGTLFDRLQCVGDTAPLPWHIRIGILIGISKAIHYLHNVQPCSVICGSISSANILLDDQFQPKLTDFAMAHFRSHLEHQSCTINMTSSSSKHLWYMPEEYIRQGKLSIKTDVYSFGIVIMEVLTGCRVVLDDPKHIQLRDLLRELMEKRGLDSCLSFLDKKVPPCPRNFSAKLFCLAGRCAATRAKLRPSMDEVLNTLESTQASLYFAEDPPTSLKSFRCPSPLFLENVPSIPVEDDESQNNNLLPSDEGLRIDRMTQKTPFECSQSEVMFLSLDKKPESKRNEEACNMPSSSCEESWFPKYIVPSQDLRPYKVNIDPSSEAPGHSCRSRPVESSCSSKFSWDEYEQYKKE
T6 sequence (Q16539 whole entry): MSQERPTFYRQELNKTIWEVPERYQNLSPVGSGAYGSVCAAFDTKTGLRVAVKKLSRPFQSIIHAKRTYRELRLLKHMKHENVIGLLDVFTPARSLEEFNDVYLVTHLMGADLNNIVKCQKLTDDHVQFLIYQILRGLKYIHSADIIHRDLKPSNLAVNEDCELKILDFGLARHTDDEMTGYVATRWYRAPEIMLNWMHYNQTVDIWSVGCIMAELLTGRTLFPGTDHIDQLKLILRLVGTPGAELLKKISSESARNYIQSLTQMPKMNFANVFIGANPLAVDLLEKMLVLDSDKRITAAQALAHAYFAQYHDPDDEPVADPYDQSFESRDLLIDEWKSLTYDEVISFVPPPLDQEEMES
FLT3(ITD,F691L), sequence (P36888 564-993 F691L): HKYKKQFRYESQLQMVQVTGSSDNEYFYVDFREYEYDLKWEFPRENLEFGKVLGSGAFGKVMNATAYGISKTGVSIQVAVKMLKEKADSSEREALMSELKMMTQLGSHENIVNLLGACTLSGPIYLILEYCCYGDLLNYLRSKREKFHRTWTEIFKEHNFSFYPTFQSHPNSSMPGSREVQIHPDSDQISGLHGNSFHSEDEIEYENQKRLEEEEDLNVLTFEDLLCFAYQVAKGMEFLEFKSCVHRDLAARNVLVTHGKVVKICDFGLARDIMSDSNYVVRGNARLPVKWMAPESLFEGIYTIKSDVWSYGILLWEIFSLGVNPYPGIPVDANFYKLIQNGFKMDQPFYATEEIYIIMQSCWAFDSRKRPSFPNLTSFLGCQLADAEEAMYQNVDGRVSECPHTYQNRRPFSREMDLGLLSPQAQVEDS
PRKG2, sequence (Q13237 whole entry): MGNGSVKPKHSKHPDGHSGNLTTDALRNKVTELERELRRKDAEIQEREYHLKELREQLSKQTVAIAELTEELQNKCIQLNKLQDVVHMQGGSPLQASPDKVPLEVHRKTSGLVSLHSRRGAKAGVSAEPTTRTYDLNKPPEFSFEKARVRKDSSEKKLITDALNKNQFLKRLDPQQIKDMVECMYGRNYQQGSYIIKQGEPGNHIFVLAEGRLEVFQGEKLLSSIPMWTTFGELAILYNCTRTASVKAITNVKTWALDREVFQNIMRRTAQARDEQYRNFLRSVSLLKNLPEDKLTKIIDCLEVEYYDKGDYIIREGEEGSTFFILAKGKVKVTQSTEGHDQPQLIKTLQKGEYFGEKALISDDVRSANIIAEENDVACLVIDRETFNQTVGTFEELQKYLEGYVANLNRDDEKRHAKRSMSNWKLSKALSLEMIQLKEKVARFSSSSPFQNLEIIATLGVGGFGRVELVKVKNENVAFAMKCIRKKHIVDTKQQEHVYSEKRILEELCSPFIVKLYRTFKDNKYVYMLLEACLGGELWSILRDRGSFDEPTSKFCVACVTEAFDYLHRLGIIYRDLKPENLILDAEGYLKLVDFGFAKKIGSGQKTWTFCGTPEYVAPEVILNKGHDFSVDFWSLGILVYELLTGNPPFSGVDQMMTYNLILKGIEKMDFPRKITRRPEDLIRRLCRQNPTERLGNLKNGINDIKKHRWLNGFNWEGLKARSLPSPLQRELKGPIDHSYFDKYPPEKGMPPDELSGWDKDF

Consider `CNS(=O)(=O)c1ccc(N(C)C)c(Nc2ncnc3cc(OC)c(OC)cc23)c1` [compound 7, 3-((6,7-dimethoxyquinazolin-4-yl)amino)-4-(dimethylamino)-N-methylbenzenesulfonamide], for which the inhibition at 1 µM at CDK2 stood at 0%; at CDK9 it was 0%; at DAPK2, 0%; at DCAMKL1, 12%; on DRAK2, 0%; at EGFR(T790M) it was 25%. Moreover, the inhibition at 1 µM at EPHB4 was 0%; at FLT3(ITD,F691L), 22%; on IRAK3 it was 0%; on MAP4K4, 0%; on MAST1, 10%; on MRCKA, 0%. Moreover, the inhibition at 1 µM was found to be 0% at MYLK4; 0% on NEK11; 0% at NEK7; 31% at NIM1; 0% on PHKG1; 0% on PIK3CA(E545A). Moreover, the inhibition at 1 µM worked out at 14% at PRKG2; 52% on QSK; 28% at RIPK2; 14% at SNRK; 0% on STK16; 0% at p38-alpha.
